Experimental data: patent US8772277B2, “Nitrogen-containing heterocyclic compound” (Takeda Pharmaceutical Company Limited, priority 2011, dated 2014)
Where a name gives a salt, the structure may show the parent alone.

How the values were obtained:
[1] = molecular target: T1, GST-ERR-α ligand-binding domain (Homo sapiens, UniProt P11474); experiment: HTRF assay system using ERR-α ligand-binding domain (inverse agonist activity, biotinylated SRC-1 (676-700) peptide); assay type: biochemical; conditions: compound final concentration 30 μM, 665/620 ratio, no compound = 0%, 10 μM XCT-790 = 100%; for inhibition at 30 µM: read-out: inhibition rate (%) at 30 μM
T1 sequence (P11474 193-421 limits assumed): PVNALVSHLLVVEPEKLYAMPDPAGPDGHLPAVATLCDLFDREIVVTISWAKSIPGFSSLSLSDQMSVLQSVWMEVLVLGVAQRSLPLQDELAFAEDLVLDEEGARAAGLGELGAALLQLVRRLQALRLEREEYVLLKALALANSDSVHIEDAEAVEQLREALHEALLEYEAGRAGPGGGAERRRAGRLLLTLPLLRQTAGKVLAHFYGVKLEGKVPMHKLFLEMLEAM
Protocol: Experimental Example 1 Compound Evaluation in HTRF Assay System Using ERR-α Ligand-Binding Domain
An assay buffer (25 mM HEPES, 100 mM NaCl, 1 mM DTT, 0.1% BSA) containing 5 nM GST-ERR-α ligand-binding domain (final concentration 1.25 nM) was added to a 384 well plate, then 40 μM N-[5-(trifluoromethyl)-1,3,4-thiadiazol-2-yl]-2-cyano-3-[3-methoxy-4-[2,4-di(trifluoromethyl)benzyloxy]phenyl]propenamide (XCT-790) (final concentration 10 μM), or 120 μM compound (final concentration 30 μM) was added. Furthermore, an assay buffer containing XL665 conjugated Streptavidin, Eu^3+ criptate conjugated GST antibody and 200 nM biotinylated SRC-1 (676-700) (final concentration 100 nM) was added, and the mixture was reacted at room temperature for 2 hr. Using Multiplate reader Envision (Perkin Elmer Inc.), after excitation at 320 nm, fluorescence values at 620 nm and 665 nm were measured. The inverse agonist activity of the compound was calculated in percentage with the 665/620 ratio value inhibited by no addition of compound as 0%, and with addition of final concentration 10 μM of XCT-790 as 100%.

[2] = molecular target: T2, fusion protein containing GAL4-DNA-binding domain and ERR full-length (Homo sapiens, UniProt P11474); experiment: Reporter assay system using 293T cells (GAL4-ERR luciferase, inverse agonist activity); assay type: cell-based; conditions: compound final concentration 3 μM, no compound = 0%, 10 μM XCT-790 = 100%; for inhibition at 3 µM: HEK-293T, read-out: inhibition rate (%) at 3 μM
T2 construct: expressed in transfected cells; host or cells: 293T cells
T2 sequence (P11474 1-423): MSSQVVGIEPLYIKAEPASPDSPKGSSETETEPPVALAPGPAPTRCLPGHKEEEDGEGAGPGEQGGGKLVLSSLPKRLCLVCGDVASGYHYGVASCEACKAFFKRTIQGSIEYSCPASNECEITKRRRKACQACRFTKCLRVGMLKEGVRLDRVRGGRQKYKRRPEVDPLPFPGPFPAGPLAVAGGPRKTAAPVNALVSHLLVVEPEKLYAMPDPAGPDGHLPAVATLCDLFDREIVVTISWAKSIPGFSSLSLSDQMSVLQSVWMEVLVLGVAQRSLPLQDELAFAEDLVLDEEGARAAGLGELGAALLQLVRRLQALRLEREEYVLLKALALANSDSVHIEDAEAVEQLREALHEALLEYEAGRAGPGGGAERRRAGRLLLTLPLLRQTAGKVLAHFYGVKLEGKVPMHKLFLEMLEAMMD
Protocol: Experimental Example 2 Compound Evaluation in Reporter Assay System Using 293T Cells
293T cells derived from human kidney were seeded in a 150 cm^2 flask by 6,000,000 cells, and cultured in a medium (DMEM medium containing 10% inactivated Fetal Bovine Serum sterile filtered (FBS), […] Gentamicin, 10 mM HEPES buffer (pH 7.4)) at 37° C. in the presence of 5% CO2 for 1 day.
Then, vector DNA having a gene encoding a fusion protein, containing GAL4-DNA-binding domain and ERR full-length and a vector DNA wherein luciferase gene is fused at the downstream of GAL4-binding-sequence were cotransfected by a lipofection method, and the cells were cultured at 37° C. in the presence of 5% CO2 for 1 day. The cells were recovered, sown in a 384 well plate by 15,000 cells, and cultured at 37° C. in the presence of 5% CO2 for 3 hrs. Furthermore, 50 μM N-[5-(trifluoromethyl)-1,3,4-thiadiazol-2-yl]-2-cyano-3-[3-methoxy-4-[2,4-di(trifluoromethyl)benzyloxy]phenyl]propenamide (XCT-790) (final concentration 10 μM) or 15 μM compound (final concentration 3 μM) was added, and the cells were cultured at 37° C. in the presence of 5% CO2 for 1 day. The luciferase activity was measured by using multiplate reader Envision (Perkin Elmer Inc.). The inverse agonist activity of the compound was calculated in percentage with the luciferase activity inhibited by no addition of compound as 0%, and with addition of final concentration 10 μM of XCT-790 as 100%.

Row | SMILES | inhibition at 30 µM [1] [%] | inhibition at 3 µM [2] [%] | inhibition rate (%) at 30 μM [1] [%] | inhibition rate (%) at 3 μM [2] [%]
1 | CNC1=NC(=O)S/C1=C\[C@@H]1C[C@H]2CC[C@@H](C1)N2Cc1ccc(C(F)(F)F)cc1C(F)(F)F [Example 15, (5Z)-5-({(3-exo)-8-[2,4-bis(trifluoromethyl)benzyl]-8-azabicyclo[3.2.1]oct-3-yl}methylidene)-4-(methylamino)-1,3-thiazol-2(5H)-one] | 102 | 88 |  | 
2 | CCCNC1=NC(=O)S/C1=C\C1CCN(Cc2ccc(C(F)(F)F)cc2C(F)(F)F)CC1 [Example 200, (5Z)-5-({1-[2,4-bis(trifluoromethyl)benzyl]piperidin-4-yl}methylidene)-4-(propylamino)-1,3-thiazol-2(5H)-one] | 101 | 88 |  | 
3 | CN(CCO)CCNC1=NC(=O)S/C1=C\C1CCN(Cc2ccc(C(F)(F)F)cc2C(F)(F)F)CC1 [Example 58, (5Z)-5-({1-[2,4-bis(trifluoromethyl)benzyl]piperidin-4-yl}methylidene)-4-({2-[(2-hydroxyethyl)(methyl)amino]ethyl}amino)-1,3-thiazol-2(5H)-one ½fumarate] | 110 | 91 |  | 
4 | O=C1N=C(NCCOCCO)/C(=C/C2CCN(Cc3ccc(C(F)(F)F)cc3C(F)(F)F)CC2)S1 [Example 8, (5Z)-5-({1-[2,4-bis(trifluoromethyl)benzyl]piperidin-4-yl}methylidene)-4-{[2-(2-hydroxyethoxy)ethyl]amino}-1,3-thiazol-2(5H)-one] |  |  | 97 | 87
5 | CC(C)(O)C#CCNC1=NC(=O)S/C1=C\C1CCN(Cc2ccc(C(F)(F)F)cc2C(F)(F)F)CC1 [Example 87, (5Z)-5-({1-[2,4-bis(trifluoromethyl)benzyl]piperidin-4-yl}methylidene)-4-[(4-hydroxy-4-methylpent-2-yn-1-yl)amino]-1,3-thiazol-2(5H)-one] |  | 88 |  | 
6 | CN(C)C(=O)CCNC1=NC(=O)S/C1=C\C1CCN(Cc2ccc(C(F)(F)F)cc2C(F)(F)F)CC1 [Example 140, N^3-[(5Z)-5-({1-[2,4-bis(trifluoromethyl)benzyl]piperidin-4-yl}methylidene)-2-oxo-2,5-dihydro-1,3-thiazol-4-yl]-N,N-dimethyl-β-alaninamide] | 100 | 90 |  | 
7 | CCN(CC)CCNC1=NC(=O)S/C1=C\C1CCN(Cc2ccc(C(F)(F)F)cc2C(F)(F)F)CC1 [Example 9, (5Z)-5-({1-[2,4-bis(trifluoromethyl)benzyl]piperidin-4-yl}methylidene)-4-{[2-(diethylamino)ethyl]amino}-1,3-thiazol-2(5H)-one dihydrochloride] | 107 | 88 |  | 
8 | CNC1=NC(=O)N(C)/C1=C\C1CCN(Cc2ccc(C(F)(F)F)cc2C(F)(F)F)CC1 [Example 80, (5Z)-5-({1-[2,4-bis(trifluoromethyl)benzyl]piperidin-4-yl}methylidene)-1-methyl-4-(methylamino)-1,5-dihydro-2H-imidazol-2-one] | 105 | 86 |  | 
9 | COCCOCCNC1=NC(=O)S/C1=C\C1CCN(Cc2ccc(C(F)(F)F)cc2C(F)(F)F)CC1 [Example 39, (5Z)-5-({1-[2,4-bis(trifluoromethyl)benzyl]piperidin-4-yl}methylidene)-4-{[2-(2-methoxyethoxy)ethyl]amino}-1,3-thiazol-2(5H)-one] | 106 | 85 |  | 
10 | O=C1N=C(NCC(O)CO)/C(=C/C2CCN(Cc3ccc(C(F)(F)F)cc3C(F)(F)F)CC2)S1 (stereo not drawn) [Example 56, (5Z)-5-({1-[2,4-bis(trifluoromethyl)benzyl]piperidin-4-yl}methylidene)-4-[(2,3-dihydroxypropyl)amino]-1,3-thiazol-2(5H)-one] | 106 | 91 |  | 
11 | CNC1=NC(=O)S/C1=C\C1CCN(Cc2ccc(C(F)(F)F)cc2C(F)(F)F)CC1 [Example 37, (5Z)-5-({1-[2,4-bis(trifluoromethyl)benzyl]piperidin-4-yl}methylidene)-4-(methylamino)-1,3-thiazol-2(5H)-one fumarate] | 109 |  |  | 
12 | O=C1N=C(NC2CCOC2)/C(=C/C2CCN(Cc3ccc(C(F)(F)F)cc3C(F)(F)F)CC2)S1 (stereo not drawn) [Example 43, (5Z)-5-({1-[2,4-bis(trifluoromethyl)benzyl]piperidin-4-yl}methylidene)-4-(tetrahydrofuran-3-ylamino)-1,3-thiazol-2(5H)-one 0.5 fumarate] | 106 | 87 |  | 
13 | CCNC1=NC(=O)S/C1=C\C1CCN(Cc2ccc(C(F)(F)F)cc2C(F)(F)F)CC1 [Example 199, (5Z)-5-({1-[2,4-bis(trifluoromethyl)benzyl]piperidin-4-yl}methylidene)-4-(ethylamino)-1,3-thiazol-2(5H)-one] | 101 | 84 |  | 
14 | CN(C)C(=O)[C@H](CO)NC1=NC(=O)S/C1=C\C1CCN(Cc2ccc(C(F)(F)F)cc2C(F)(F)F)CC1 [Example 132, N^2-[(5Z)-5-({1-[2,4-bis(trifluoromethyl)benzyl]piperidin-4-yl}methylidene)-2-oxo-2,5-dihydro-1,3-thiazol-4-yl]-N,N-dimethyl-L-serinamide] | 102 | 78 |  | 
15 | CC(C)(O)CNC1=NC(=O)S/C1=C\C1CCN(Cc2ccc(C(F)(F)F)cc2C(F)(F)F)CC1 [Example 31, (5Z)-5-({1-[2,4-bis(trifluoromethyl)benzyl]piperidin-4-yl}methylidene)-4-[(2-hydroxy-2-methylpropyl)amino]-1,3-thiazol-2(5H)-one] |  |  | 101 | 87
16 | C#CCNC1=NC(=O)S/C1=C\C1CCN(Cc2ccc(C(F)(F)F)cc2C(F)(F)F)CC1 [Example 16, (5Z)-5-({1-[2,4-bis(trifluoromethyl)benzyl]piperidin-4-yl}methylidene)-4-(prop-2-yn-1-ylamino)-1,3-thiazol-2(5H)-one hydrochloride] | 112 | 89 |  | 
17 | C#CCNC1=NC(=O)S/C1=C\C1CCN(Cc2ccc(C(F)(F)F)cc2Cl)CC1 [Example 59, (5Z)-5-({1-[2-chloro-4-(trifluoromethyl)benzyl]piperidin-4-yl}methylidene)-4-(prop-2-yn-1-ylamino)-1,3-thiazol-2(5H)-one fumarate] | 49 | 67 |  | 
18 | CNC1=NC(=O)S/C1=C\C1CCN(Cc2ccc(C(F)(F)F)cc2C(F)(F)F)CC1 [Example 3, (5Z)-5-({1-[2,4-bis(trifluoromethyl)benzyl]piperidin-4-yl}methylidene)-4-(methylamino)-1,3-thiazol-2(5H)-one] |  | 88 |  | 
